Source: patent US9284325B2, “Spectinamides as anti-tuberculosis agents” (UNIVERSITY OF TENNESSEE RESEARCH FOUNDATION, priority 2009, dated 2016)
In brackets after ≈: the same amount, converted by molar mass. Where a name gives a salt, the structure may show the parent alone.

How the values were obtained:
M. tuberculosis H37Rv = assay: MIC determination by microbroth dilution, anti-tuberculosis activity; assay type: cell-based, Mycobacterium tuberculosis; conditions: Mycobacterium tuberculosis, H37RV, 168 h; read-out: MIC
[1] = system: S. aureus 8325 or strain ATCC 29213; assay: MIC determination by microbroth dilution; assay type: cell-based, Staphylococcus aureus; conditions: Staphylococcus aureus, ATCC29213; S. aureus 8325 or strain ATCC 29213 (for 1471-1544)
[2] = system: Strep. pyogenes ATCC 700294; assay: MIC determination by microbroth dilution; assay type: cell-based, Streptococcus pyogenes; conditions: Streptococcus pyogenes, ATCC700294, read-out: MIC S. pyogenes
[3] = system: Strep. pneumoniae DAW27 or strain R6; assay: MIC determination by microbroth dilution; assay type: cell-based, Streptococcus pneumoniae; conditions: Streptococcus pneumoniae; Strep. pneumoniae DAW27 or strain R6 (for 1443-1544); read-out: MIC S. pneumoniae
E. faecalis ATCC 33186 = assay: MIC determination by microbroth dilution; assay type: cell-based, Enterococcus faecalis; conditions: Enterococcus faecalis, ATCC33186
B. anthracis Sterne 34F2 = assay: microbe, parasite or virus in culture; assay type: cell-based, Bacillus anthracis; conditions: Bacillus anthracis, STERNE34F2, read-out: MIC B. anthracis 34F2
[4] = system: Burkholderia cepacia ATCC 25416; assay: MIC determination by microbroth dilution; assay type: cell-based; conditions: ATCC25416, read-out: MIC B. cepcia
[5] = system: Proteus mirabilis ATCC 25933; assay: MIC determination by microbroth dilution; assay type: cell-based; conditions: ATCC25933
[6] = system: Proteus vulgaris ATCC 33420; assay: MIC determination by microbroth dilution; assay type: cell-based; conditions: ATCC33420
[7] = system: Klebsiella pneumoniae ATCC 33495; assay: MIC determination by microbroth dilution; assay type: cell-based; conditions: ATCC33495
[8] = system: Acinetobacter baumannii ATCC 19606; assay: MIC determination by microbroth dilution; assay type: cell-based; conditions: ATCC19606
P. aeruginosa PAO1 = assay: MIC determination by microbroth dilution; assay type: cell-based, Pseudomonas aeruginosa; conditions: Pseudomonas aeruginosa
[9] = system: Strenotrophomonas maltophilia ATCC 13637; assay: MIC determination by microbroth dilution; assay type: cell-based
E. coli K12 = assay: MIC determination by microbroth dilution; assay type: cell-based, Escherichia coli; conditions: Escherichia coli, K12
E. coli K12 ΔtolC = assay: microbe, parasite or virus in culture; assay type: cell-based; conditions: Escherichia coli, read-out: MIC E. coli K12 ΔtolC

## CN[C@@H]1[C@H](O)[C@H](NC)C2O[C@]3(O)C(OC2[C@H]1O)O[C@H](C)C[C@H]3NC(=O)[C@@H](C)N (stereo partly drawn) [Compound 1501, 3′-Dihydro-3′-deoxy-4(R)[2(R)-amino]propanoylamino spectinomycin Trihydrochloride]
M. tuberculosis H37Rv
  MIC: > 200 µg/mL
[1]
  MIC: > 200 µg/mL
[2]
  MIC: > 200 µg/mL
[3]
  MIC: > 200 µg/mL
E. faecalis ATCC 33186
  MIC: > 200 µg/mL
B. anthracis Sterne 34F2
  MIC: > 200 µg/mL
[4]
  MIC: > 200 µg/mL
[5]
  MIC: > 200 µg/mL
[6]
  MIC: > 200 µg/mL
[7]
  MIC: > 200 µg/mL
[8]
  MIC: > 200 µg/mL
P. aeruginosa PAO1
  MIC: > 200 µg/mL
[9]
  MIC: > 200 µg/mL
E. coli K12
  MIC: > 200 µg/mL
E. coli K12 ΔtolC
  MIC: > 200 µg/mL

## CN[C@@H]1[C@H](O)[C@H](NC)C2O[C@]3(O)C(OC2[C@H]1O)O[C@H](C)C[C@H]3NC(=O)Cc1ccc(-c2ccc(F)cc2)cn1 (stereo partly drawn) [Compound 1542, 3′-Dihydro-3′-deoxy-4(R)-(5-(4-fluorophenyl)pyridin-2-yl)acetylamino spectinomycin tribromide]
M. tuberculosis H37Rv
  MIC: 3.12 µg/mL
[1]
  MIC: 100 µg/mL
[2]
  MIC: 6.25 µg/mL
[3]
  MIC: 3.1 µg/mL
E. faecalis ATCC 33186
  MIC: 25 µg/mL
B. anthracis Sterne 34F2
  MIC: > 200 µg/mL
[4]
  MIC: > 200 µg/mL
[5]
  MIC: > 200 µg/mL
[6]
  MIC: > 200 µg/mL
[7]
  MIC: > 200 µg/mL
[8]
  MIC: > 200 µg/mL
P. aeruginosa PAO1
  MIC: > 200 µg/mL
[9]
  MIC: > 200 µg/mL
E. coli K12
  MIC: > 200 µg/mL
E. coli K12 ΔtolC
  MIC: 12.5 µg/mL

## CN[C@@H]1[C@H](O)[C@H](NC)C2O[C@]3(O)C(OC2[C@H]1O)O[C@H](C)C[C@H]3NC(=O)C[C@@H](N)c1ccc(F)cc1 (stereo partly drawn) [Compound 1487, 3′-Dihydro-3′-deoxy-4(R)-[3(R)-amino,3-(4-fluorophenyl)]propanoylamino spectinomycin Trihydrochloride]
M. tuberculosis H37Rv
  MIC: 200 µg/mL
[1]
  MIC: > 200 µg/mL
[2]
  MIC: 50 µg/mL
[3]
  MIC: 12.5 µg/mL
E. faecalis ATCC 33186
  MIC: > 200 µg/mL
B. anthracis Sterne 34F2
  MIC: > 200 µg/mL
[4]
  MIC: > 200 µg/mL
[5]
  MIC: > 200 µg/mL
[6]
  MIC: > 200 µg/mL
[7]
  MIC: > 200 µg/mL
[8]
  MIC: > 200 µg/mL
P. aeruginosa PAO1
  MIC: > 200 µg/mL
[9]
  MIC: > 200 µg/mL
E. coli K12
  MIC: 200 µg/mL
E. coli K12 ΔtolC
  MIC: 200 µg/mL

## CN[C@@H]1[C@H](O)[C@H](NC)C2O[C@]3(O)C(OC2[C@H]1O)O[C@H](C)C[C@H]3NC(=O)Cc1nccs1 (stereo partly drawn) [Compound 1489, 3′-Dihydro-3′-deoxy-4(R)-(thiazol-2-yl)acetylamino spectinomycin tetradrobromide]
M. tuberculosis H37Rv
  MIC: 6.25 µg/mL (≈ 13.6 µM)
[1]
  MIC: 100 µg/mL (≈ 218 µM)
[2]
  MIC: 12.5 µg/mL (≈ 27.3 µM)
[3]
  MIC: 12.5 µg/mL (≈ 27.3 µM)
E. faecalis ATCC 33186
  MIC: 100 µg/mL (≈ 218 µM)
B. anthracis Sterne 34F2
  MIC: > 200 µg/mL
[4]
  MIC: > 200 µg/mL
[5]
  MIC: > 200 µg/mL
[6]
  MIC: > 200 µg/mL
[7]
  MIC: > 200 µg/mL
[8]
  MIC: > 200 µg/mL
P. aeruginosa PAO1
  MIC: > 200 µg/mL
[9]
  MIC: > 200 µg/mL
E. coli K12
  MIC: 200 µg/mL (≈ 436 µM)
E. coli K12 ΔtolC
  MIC: 50 µg/mL (≈ 109 µM)

## CN[C@@H]1[C@H](O)[C@H](NC)C2O[C@]3(O)C(OC2[C@H]1O)O[C@H](C)C[C@H]3NC(=O)CCc1ccccn1 (stereo partly drawn) [Compound 1518, 3′-Dihydro-3′-deoxy-4(R)-(pyridin-2-yl)propanoylamino spectinomycin trihydrobromide]
M. tuberculosis H37Rv
  MIC: 50 µg/mL
[1]
  MIC: 200 µg/mL
[2]
  MIC: 6.25 µg/mL
[3]
  MIC: 12.5 µg/mL
E. faecalis ATCC 33186
  MIC: > 200 µg/mL
B. anthracis Sterne 34F2
  MIC: > 200 µg/mL
[4]
  MIC: > 200 µg/mL
[5]
  MIC: > 200 µg/mL
[6]
  MIC: > 200 µg/mL
[7]
  MIC: > 200 µg/mL
[8]
  MIC: > 200 µg/mL
P. aeruginosa PAO1
  MIC: > 200 µg/mL
[9]
  MIC: > 200 µg/mL
E. coli K12
  MIC: > 200 µg/mL
E. coli K12 ΔtolC
  MIC: 50 µg/mL

## CN[C@@H]1[C@H](O)[C@H](NC)C2O[C@]3(O)C(OC2[C@H]1O)O[C@H](C)C[C@H]3NC(=O)[C@@H](N)Cc1ccccc1 (stereo partly drawn) [Compound 1515, 3′-Dihydro-3′-deoxy-4(R)-[2(S)-amino,3-phenyl]propanoylamino spectinomycin Trihydrochloride]
M. tuberculosis H37Rv
  MIC: 200 µg/mL
[1]
  MIC: > 200 µg/mL
[2]
  MIC: 12.5 µg/mL
[3]
  MIC: 6.25 µg/mL
E. faecalis ATCC 33186
  MIC: > 200 µg/mL
B. anthracis Sterne 34F2
  MIC: > 200 µg/mL
[4]
  MIC: > 200 µg/mL
[5]
  MIC: > 200 µg/mL
[6]
  MIC: 100 µg/mL
[7]
  MIC: > 200 µg/mL
[8]
  MIC: > 200 µg/mL
P. aeruginosa PAO1
  MIC: > 200 µg/mL
[9]
  MIC: > 200 µg/mL
E. coli K12
  MIC: > 200 µg/mL
E. coli K12 ΔtolC
  MIC: 12.5 µg/mL

## CN[C@@H]1[C@H](O)[C@H](NC)C2O[C@]3(O)C(OC2[C@H]1O)O[C@H](C)C[C@H]3NC(=O)Cc1cc(Cl)ccn1 (stereo partly drawn) [Compound 1544, 3′-Dihydro-3′-deoxy-4(R)-(4-chloropyridin-2-yl)acetylamino spec-tinomycin tribromide]
M. tuberculosis H37Rv
  MIC: 0.8 µg/mL
[1]
  MIC: 50 µg/mL
[2]
  MIC: 12.5 µg/mL
[3]
  MIC: 6.25 µg/mL
E. faecalis ATCC 33186
  MIC: 100 µg/mL
B. anthracis Sterne 34F2
  MIC: > 200 µg/mL
[4]
  MIC: > 200 µg/mL
[5]
  MIC: > 200 µg/mL
[6]
  MIC: > 200 µg/mL
[7]
  MIC: > 200 µg/mL
[8]
  MIC: > 200 µg/mL
P. aeruginosa PAO1
  MIC: > 200 µg/mL
[9]
  MIC: > 200 µg/mL
E. coli K12
  MIC: > 200 µg/mL
E. coli K12 ΔtolC
  MIC: 12.5 µg/mL

## CN[C@@H]1[C@H](O)[C@H](NC)C2O[C@]3(O)C(OC2[C@H]1O)O[C@H](C)C[C@H]3NC(=O)[C@@H](N)C(C)C (stereo partly drawn) [Compound 1486, 3′-Dihydro-3′-deoxy-4(R)-[2(S)-amino,3-methyl]butanoylamino spectinomycin Trihydrochloride]
M. tuberculosis H37Rv
  MIC: 200 µg/mL
[1]
  MIC: > 200 µg/mL
[2]
  MIC: 50 µg/mL
[3]
  MIC: > 200 µg/mL
E. faecalis ATCC 33186
  MIC: > 200 µg/mL
B. anthracis Sterne 34F2
  MIC: > 200 µg/mL
[4]
  MIC: > 200 µg/mL
[5]
  MIC: > 200 µg/mL
[6]
  MIC: > 200 µg/mL
[7]
  MIC: > 200 µg/mL
[8]
  MIC: > 200 µg/mL
P. aeruginosa PAO1
  MIC: > 200 µg/mL
[9]
  MIC: > 200 µg/mL
E. coli K12 ΔtolC
  MIC: > 200 µg/mL

## CN[C@@H]1[C@H](O)[C@H](NC)C2O[C@]3(O)C(OC2[C@H]1O)O[C@H](C)C[C@H]3NC(=O)Cc1csc(Nc2ccccc2)n1 (stereo partly drawn) [Compound 1520, 3′-Dihydro-3′-deoxy-4(R)-(2-(phenylamino)thiazol-4-yl)acetylamino spectinomycin trihydrobromide]
M. tuberculosis H37Rv
  MIC: 6.25 µg/mL
[1]
  MIC: 100 µg/mL
[2]
  MIC: 3.1 µg/mL
[3]
  MIC: 3.1 µg/mL
E. faecalis ATCC 33186
  MIC: 100 µg/mL
B. anthracis Sterne 34F2
  MIC: > 200 µg/mL
[4]
  MIC: > 200 µg/mL
[5]
  MIC: > 200 µg/mL
[6]
  MIC: > 200 µg/mL
[7]
  MIC: > 200 µg/mL
[8]
  MIC: > 200 µg/mL
P. aeruginosa PAO1
  MIC: > 200 µg/mL
[9]
  MIC: > 200 µg/mL
E. coli K12
  MIC: > 200 µg/mL
E. coli K12 ΔtolC
  MIC: 25 µg/mL

## CN[C@@H]1[C@H](O)[C@H](NC)C2O[C@]3(O)C(OC2[C@H]1O)O[C@H](C)C[C@H]3NCCc1ccccc1 (stereo partly drawn) [Compound 1450, 3′-Dihydro-3′-deoxy-4(R)-2-phenylethylamino spectinomycin Trihydrochloride]
M. tuberculosis H37Rv
  MIC: 200 µg/mL

## CC[C@H](C)[C@H](N)C(=O)N[C@@H]1C[C@@H](C)OC2OC3C(O[C@]21O)[C@@H](NC)[C@@H](O)[C@@H](NC)[C@@H]3O (stereo partly drawn) [Compound 1485, 3′-Dihydro-3′-deoxy-4(R)-[(2S,3S)-2-amino,3-methyl]pentanoylamino spectinomycin Trihydrochloride]
M. tuberculosis H37Rv
  MIC: 200 µg/mL
[1]
  MIC: > 200 µg/mL
[2]
  MIC: 25 µg/mL
[3]
  MIC: 25 µg/mL
E. faecalis ATCC 33186
  MIC: > 200 µg/mL
B. anthracis Sterne 34F2
  MIC: > 200 µg/mL
[4]
  MIC: > 200 µg/mL
[5]
  MIC: > 200 µg/mL
[6]
  MIC: > 200 µg/mL
[7]
  MIC: > 200 µg/mL
[8]
  MIC: > 200 µg/mL
P. aeruginosa PAO1
  MIC: > 200 µg/mL
[9]
  MIC: > 200 µg/mL
E. coli K12 ΔtolC
  MIC: > 200 µg/mL
